Assays:
[1] = target: Sphingosine 1-phosphate receptor 1 (Homo sapiens, UniProt P21453); assay: (§1) S1P Assay: Selected Compounds of the Examples were evaluated at Millipore Corporation, USA, using S1P1 receptor; [35S]-GTPgamaS binding assay. A [35S]-GTPgamaS binding assay at Millipore was conducted by GPCR Profiler¿ Custom Service Laboratory, Temecula, Calif., Millipore, Inc. to monitor dose-dependent agonist selectivity for selected Examples against the S1P1 receptors. The assay was completed with sample compounds subjected to an eight-point, four-fold dose response curve with starting concentration of 10 μM. Selectivity was determined upon initial addition of compounds followed by a 30 minute incubation at 30° C. Following compound incubation, bounded [35S]-GTPgamaS was determined by filtration and scintillation counting. Independently, selected compounds were evaluated for S1P1 and S1P3 agonistic activity. The S1P1 assay system was GTPgama-S35 binding in membranes from CHO K1 cells, expressing S1P1 human receptor. The S1P3 assay system was calcium mobilization in CHO K1 cells expressing S1P3 human receptor. There was no significant background response to S1P in the CHO K1 cells with either assay. Compounds were tested initially at a concentration of 10 μM.; assay type: cell membranes
Sphingosine 1-phosphate receptor 1, sequence (P21453 whole entry): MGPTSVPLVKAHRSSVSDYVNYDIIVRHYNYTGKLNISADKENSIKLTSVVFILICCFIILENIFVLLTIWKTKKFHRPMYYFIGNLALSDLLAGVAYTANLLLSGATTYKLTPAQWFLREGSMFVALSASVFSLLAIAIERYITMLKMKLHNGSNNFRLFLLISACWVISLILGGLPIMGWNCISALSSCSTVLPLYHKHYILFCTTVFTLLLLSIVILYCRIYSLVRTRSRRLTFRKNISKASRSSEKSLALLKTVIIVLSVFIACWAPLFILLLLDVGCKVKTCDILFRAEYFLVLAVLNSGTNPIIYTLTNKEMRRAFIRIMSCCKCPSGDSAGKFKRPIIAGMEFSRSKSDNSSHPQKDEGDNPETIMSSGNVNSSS

[2] = target: Sphingosine 1-phosphate receptor 3 (Homo sapiens, UniProt Q99500); assay: as §1; assay type: cell membranes
Sphingosine 1-phosphate receptor 3, sequence (Q99500 whole entry): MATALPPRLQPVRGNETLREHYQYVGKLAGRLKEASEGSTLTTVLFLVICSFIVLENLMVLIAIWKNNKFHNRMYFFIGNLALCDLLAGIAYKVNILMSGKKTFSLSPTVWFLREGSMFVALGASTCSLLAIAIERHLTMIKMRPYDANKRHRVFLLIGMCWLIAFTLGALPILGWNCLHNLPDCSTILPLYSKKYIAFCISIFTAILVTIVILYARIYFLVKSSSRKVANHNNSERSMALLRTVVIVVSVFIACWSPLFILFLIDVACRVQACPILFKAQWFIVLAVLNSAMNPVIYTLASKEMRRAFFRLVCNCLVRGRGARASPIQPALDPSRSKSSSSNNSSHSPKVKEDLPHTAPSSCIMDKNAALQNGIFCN

Row | Structure (SMILES) | EC50 [1] | EC50 [2]
1 | CCCCCCCCc1ccc(NC(=O)NCCC(=O)O)cc1 | 460 nM | –
2 | CC(C)N(Cc1ccc(-c2ccc(CN3CC(C(=O)O)C3)cc2)cc1)c1ccc(F)cc1 | 600 nM | –
3 | COc1ccc(COc2ccc(CN3CC(C(=O)O)C3)cc2)cc1C12CC3CC(CC(C3)C1)C2 | 60 nM | –

The remaining compounds from weak to strong by EC50 [1], led by results:

Row | EC50 [1] | EC50 [2] | Structure (SMILES)
4 | 1820 nM | – | Cc1ccc(/C=C/c2nc(-c3ccc4oc(C(N)(CO)CO)cc4c3)no2)cc1
5 | 57 nM | 380 nM | CCOc1ccc(-c2nc(-c3ccc4oc(C(N)(CO)CO)cc4c3)no2)cc1OCC

Source: ChEMBL document CHEMBL5725494, “S1P receptors modulators and their use thereof” (2017)
